Patent publication US6605424B1, “Method of detecting inhibitors of agonist-specific desensitization” (Duke University, priority 1989, dated 2003)

What was measured:
[1] = biological target: T1, βAR kinase (Bos taurus, UniProt P21146); test: βAR kinase inhibition with the βAR as substrate (Example I, data not shown); format: biochemical, bovine
T1 construct: βAR kinase was purified from bovine cerebral cortex; from tissue; host or cells: bovine cerebral cortex
T1 sequence (P21146 1-689): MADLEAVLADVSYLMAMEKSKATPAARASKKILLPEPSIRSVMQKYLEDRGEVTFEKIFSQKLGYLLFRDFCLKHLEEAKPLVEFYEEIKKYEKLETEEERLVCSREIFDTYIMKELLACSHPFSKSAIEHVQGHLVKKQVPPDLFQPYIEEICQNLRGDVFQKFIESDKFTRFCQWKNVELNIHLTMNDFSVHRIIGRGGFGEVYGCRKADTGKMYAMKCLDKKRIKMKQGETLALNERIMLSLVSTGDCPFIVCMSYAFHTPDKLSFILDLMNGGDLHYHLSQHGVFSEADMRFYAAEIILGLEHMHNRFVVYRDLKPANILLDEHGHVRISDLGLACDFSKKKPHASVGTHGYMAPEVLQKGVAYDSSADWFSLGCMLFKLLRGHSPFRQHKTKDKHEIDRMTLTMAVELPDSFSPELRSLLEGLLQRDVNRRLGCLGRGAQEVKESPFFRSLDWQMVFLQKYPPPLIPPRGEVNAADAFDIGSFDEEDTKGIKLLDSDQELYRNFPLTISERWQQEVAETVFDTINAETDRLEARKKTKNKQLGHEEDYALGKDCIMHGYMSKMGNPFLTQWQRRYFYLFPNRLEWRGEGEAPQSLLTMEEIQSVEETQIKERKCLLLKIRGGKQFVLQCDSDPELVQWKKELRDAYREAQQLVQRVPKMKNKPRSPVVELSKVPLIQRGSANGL
Text: βAR kinase phosphorylates the β2AR, the α2-adrenergic receptor, and rhodopsin in a stimulus-dependent fashion. Rhodopsin was utilized as the substrate in these experiments because of its ease of isolation. However, the inhibitory effects of polyanions observed with βAR kinase-catalyzed phosphorylation of rhodopsin have also been observed using reconstituted β2AR as the substrate.

[2] = biological target: T1, βAR kinase; test: Phosphorylation of purified reconstituted β2ARs by purified βAR kinase (Example II); format: biochemical, bovine; details: for IC50: 50 μM (−)-isoproterenol, read-out: IC50, inhibition of phosphorylation of reconstituted β2ARs by βAR kinase
[3] = test system: β2ARs in intact A431 cells; test: Desensitization of β2ARs in intact A431 cells; format: cell-based, human; details: data not shown
[4] = test system: β2ARs in permeabilized A431 cells; test: Phosphorylation of β2ARs in permeabilized A431 cells; format: cell-based, human; details: 1 μM heparin
Procedure: FIG. 8. Phosphorylation of β2ARs in permeabilized A431 cells. […] FIG. 8A: Autoradiogram obtained after a 10-day exposure at −70° C. FIG. 8B: Transverse densitometric scan of the autoradiogram.
β2ARs in permeabilized A431 cells were phosphorylated as follows. Permeabilized cells (4×10^8) in 10 ml of KG-A buffer containing 1 mCi (1 Ci=37 GBq) of [γ-^32P]ATP were incubated with or without 1 μM (−)-isoproterenol (and other compounds as indicated) for 10 min at 37° C. All buffers used in these experiments contained 5 μg of soybean tryspin inhibitor, 5 μg of leupeptin, and 10 μg of benzamidine per ml and 0.1 mM phenylmethylsulfonyl fluoride. […] After three identical washing steps, crude membranes were prepared as above.
Aliquots of the samples (≈60 fmol of β2ARs) were desalted over Sephadex G-50 and incubated for 2 hr at 20° C. with 200 pM of the ligand with or without 10 μM alprenolol. Free ligand was removed by desalting as above, and the samples were irradiated with UV light for 3 min. The samples were loaded on the same gel as the samples described above.

[5] = test system: permeabilized A431 cells; test: Accumulation of [32P]cAMP in permeabilized cells; format: cell-based, human; details: up to 1 μM; presence or absence of isoproterenol
[6] = biological target: T1, βAR kinase; test: Phosphorylation of rhodopsin (urea-treated rod outer segments) by βAR kinase; format: biochemical, bovine

Substance: heparin
- IC50 [1]: ~30 nM
- Inhibition of βAR kinase, % ([2]; 0.1 μM): 96 ± 1%
- IC50 ([2]; listed as heparin): 6.1 ± 2 nM
- IC50 [2]: 6 nM
- extent of inhibition of β2AR phosphorylation ([2]; at 30-100 nM): almost complete inhibition
- effect on desensitization in intact cells [3]: Neither compound affected desensitization
- effect on basal phosphorylation of β2ARs [4]: not affecting basal phosphorylation
- reduction of isoproterenol-induced phosphorylation of β2ARs ([4]; 1 μM isoproterenol, 10 min, three experiments): 50-80%
- effect on [32P]cAMP formation [5]: did not reduce
- type of inhibition with respect to ATP ([6]; ATP 33 to 100 μM): mixed type inhibitor
- type of inhibition with respect to rhodopsin ([6]; rhodopsin 3 to 20 μM): competitive inhibitor
